Results taken from patent publication US20060167229A1, “Biologically active peptide conjugates” (priority 2002, published 2006).
Marks after values point to notes of the source that are not given here. Ends that are not written are not given here.

What was measured:
Format in all cases: in vivo, BALB/c mice
thymus gland = assay: Immunity organ weight test, thymus gland index; details: for weight of thymus gland (thymus gland index), X ± SD (%): healthy mice, saline 0.12 ± 0.02; for effect on the weight of the thymus gland (summary): statistically significant difference from saline in any of the dosage groups 0.5-500 μg/kg/day
Protocol: (§1) One day after the last test substance administration (day 16), the liver, spleen, and thymus gland were separated and blotted dry with filter paper and weighed. The phagocytosis index α was calculated as below: α=(^3√{square root over ( )}K)(W÷WLS)
Thymus gland index (%)=(thymus weight/body weight)×100%

NK cell = NK cell cytotoxicity activity test (spleen cells of treated mice against YAC-1 target cells, MTT); details: for NK cell cytotoxic activity, X ± SD (%): healthy mice; for effect on the cytotoxic activity of NK cells (summary): statistically significant difference from saline in any of the dosage groups 0.5-500 μg/kg/day
Protocol: (§2) The above substances were all dissolved in 0.5 ml saline and injected intraperitoneal (i.p.) for 15 continuous days, once per day.
(§3) Ten mice per group. The day after the last test substance administration, the mice were sacrificed by cervical dislocation. The spleen was isolated aseptically and manually dispersed in cold D-Hank's solution using an injection needle. The dispersed cell suspension was further sieved through a 100 gauge 150 μm diameter stainless steel sieve. After centrifugation at 200 g for 10 minutes, the supernatant was discarded. The cell pellet was re-suspended in 10 volume of Tris-NH4Cl buffer and then kept standing still for 10 minutes at room temperature. The suspended cells were collected by centrifugation at 150 g for 10 minutes. The cells were washed 2-4 times with cold D-Hank's solution by re-suspending and collecting by centrifugation with condition as described above. The washed cells were then diluted to the desired cell densities by RPMI-1640 culture medium, containing 10% fetal bovine serum.
Mice spleen cells were prepared to 4×10^6/ml as described in section 1.1 above. Target cells YAC-1 were brought to log phase and adjusted to 1×10^5/ml. Using a 96 wells cell culture plate, […] were added to the control well containing only the spleen cells; […] and 100 μl culture medium were added to the control well containing only target cells; 100 μl mouse spleen cells and 100 μl target cells were added to the NK activity assay well. Three parallel sets of the above were prepared per mouse.
Samples were centrifuged at 150 g for 10 minutes to collect the cells. The supernatant was discarded and 50 μl/well MTT of 1 mg/ml was added. The reaction-mixture was then shaken for 2 minutes, and incubated at 37° C., 5% CO2 for 4 hours. The supernatant was discarded after centrifugation at 150 g for 10 minutes. […] 40 mM HCl-2-propanol was added and shaken for 3 minutes. An ELISA reader was used to obtain OD570 nm of each well referenced at 630 nm.

anti-SRBC antibody = assay: Sheep Red Blood Cell (SRBC) hemolysis test, antibody formation; details: for anti-SRBC antibody formation, X ± SD (Unit): healthy mice, SRBC day 12 (IFN-γ, IL-2 3×10^5 IU/kg/day), saline 32 ± 7; for effect on the synthesis of anti-SRBC antibody upon the antigenic challenge (summary): statistically significant difference from saline in any of the dosage groups 0.5-500 μg/kg/day
Protocol: Sheep red blood cells (SRBC) were prepared by collecting blood from cervical vein and put into a sterile flask with glass beads. The flask was shaken for 3 minutes and the blood then mixed with Alsever solution (glucose 2.05 g, NaCl 0.4 g, […] 0.8 g, adjust to 100 ml with distilled water) and stored at 4° C. Immediately before use, samples were centrifuged at 130 g, 5 minutes to collect the SRBC. The cells were washed two times by re-suspension and centrifugation in normal saline. Then the cell pellet was collected by centrifugation at 180 g for 10 minutes and re-suspended in saline to make the final working SRBC suspension, 2% (v/v).
Complement was prepared by adding 10 volumes of fresh Cavy serum into one volume centrifuge packed SRBC, and then gently shaking for 30 minutes at 4° C. The SRBC was removed by centrifugation at 200 g for 10 minutes. 10 volumes of normal saline were added to obtain the working complement solution.
The test substances were administered as described in section 1.1, plus intraperitoneal injection 0.2 ml SRBC per mouse on day 12. On the day after the last test substance administration (day 16), blood was collected from the eye canthus and left at room temperature for one hour for serum exudation. After centrifugation at 200 g for 10 minutes, the serum was diluted by 500 times with normal saline.
To 1 ml diluted mouse serum of each mouse, 0.5 ml SRBC suspension was added. Ice cold. Then 1 ml working complement solution was added and incubated at 37° C. water bath for 10 minutes. Reactions were terminated by ice cold. Samples were then centrifuged at 200 g for 10 minutes to obtain the supernatant.
To 1 ml of this supernatant, 3 ml Drabkin solution was added and left at room temperature for 10 minutes. OD540 nm was obtained.
Reference OD540 nm was obtained by mixing 0.25 ml SRBC suspension with Drabkin solution to 4 ml and placed at room temperature for 10 minutes before OD540 nm was taken.
Sample serum index=(OD540 nm of test sample÷reference OD540 nm)×500

spleen = assay: Immunity organ weight test, spleen index; details: for weight of spleen (spleen index), X ± SD (%): healthy mice, saline 0.53 ± 0.05; for effect on the weight of the spleen (summary): statistically significant difference from saline in any of the dosage groups 0.5-500 μg/kg/day
Protocol: as §1
Spleen index (%)=(spleen weight/body weight)×100%

T lymphocyte = T lymphocyte transformation test (ConA-stimulated spleen cells of treated mice, MTT); details: for X ± SD (stimulation index): healthy mice, saline 1.3 ± 0.1; for effect on T lymphocyte transformation (summary): statistically significant difference from saline in any of the dosage groups 0.5-500 μg/kg/day
Protocol: as §2, §3
Spleen cells of density 1×10^6/ml were placed onto a 96 wells cell culture plate, 100 μL/well, three parallel wells each of the assay sample and control sample per mouse. To the assay wells, 100 μl/well ConA of 100 μg/ml in RPMI-1640 was added, and […] plain RPMI-1640 was used for the controls. The cells were incubated for 66 hrs at 37° C., 5% CO2. The cells were then pelleted by centrifugation at 150 g for 10 minutes.
50 μl/well MTT of 1 mg/ml in RPMI-1640 was added to the cell pellet and the cells re-suspended by shaking for 2 minutes. The incubation was continued for 4 hours. The supernatant was discarded after centrifugation at 150 g for 10 minutes. 120 μl 40 mM HCl-2-propanol was added to the cell pellet and shaken for 3 minutes. […]
Each mouse formed three assay wells and three control wells. The Stimulation Index (SI) of each mouse was obtained by first deriving the average OD of the three parallel wells, then dividing the value of the assay wells by the control wells.

mononuclear phagocyte = assay: Carbon particle clearance test, phagocytosis function; set-up: key to X ± SD (phagocytotic index): α = cube root of K × (body weight ÷ liver+spleen weight)
Protocol: On the next day after the last test substance administration (day 16), the mice were injected with […] body weight India ink (5 times dilution with normal saline) from the tail vein.
One minute and five minutes after Indian ink injection, 20 μl blood was obtained from the eye canthus with a heparinized tubing. The blood was mixed with 2 ml 0.1% w/v Na2CO3 and then OD680 nm obtained. The outline clear index K was calculated by the following formula: K=(lgA1−lgA2)÷(t2−t1)
as §1

[1] = peptide 5 μg/kg/day i.p. 15 days (IFN-γ, IL-2 3×10^5 IU/kg/day)
[2] = peptide 50 μg/kg/day i.p. 15 days (IFN-γ, IL-2 3×10^5 IU/kg/day)
[3] = peptide 500 μg/kg/day i.p. 15 days (IFN-γ, IL-2 3×10^5 IU/kg/day), saline 63 ± 9
[4] = peptide 0.5 μg/kg/day i.p. 15 days
[5] = peptide 5 μg/kg/day i.p. 15 days
[6] = peptide 50 μg/kg/day i.p. 15 days
[7] = peptide 500 μg/kg/day i.p. 15 days
[8] = peptide 500 μg/kg/day i.p. 15 days (IFN-γ, IL-2 3×10^5 IU/kg/day)
[9] = peptide 0.5 μg/kg/day i.p. 15 days (IFN-γ, IL-2 3×10^5 IU/kg/day)

Substance	weight of thymus gland (thymus gland index), X ± SD (%) (thymus gland; [1])	weight of thymus gland (thymus gland index), X ± SD (%) (thymus gland; [2])	effect on the weight of the thymus gland (summary) (thymus gland)	NK cell cytotoxic activity, X ± SD (%) (NK cell; [3])	effect on the cytotoxic activity of NK cells (summary) (NK cell)	anti-SRBC antibody formation, X ± SD (Unit) (anti-SRBC antibody; [4])	anti-SRBC antibody formation, X ± SD (Unit) (anti-SRBC antibody; [5])	anti-SRBC antibody formation, X ± SD (Unit) (anti-SRBC antibody; [6])	anti-SRBC antibody formation, X ± SD (Unit) (anti-SRBC antibody; [7])	effect on the synthesis of anti-SRBC antibody upon the antigenic challenge (summary) (anti-SRBC antibody)	weight of spleen (spleen index), X ± SD (%) (spleen; [7])	effect on the weight of the spleen (summary) (spleen)	weight of thymus gland (thymus gland index), X ± SD (%) (thymus gland; [8])	X ± SD (stimulation index) (T lymphocyte; [8])	effect on T lymphocyte transformation (summary) (T lymphocyte)	weight of thymus gland (thymus gland index), X ± SD (%) (thymus gland; [9])	also measured
Ala Ala Phe [CMS023]	0.23 ± 0.06 %	0.20 ± 0.02*^@^ %	increase	79 ± 12 %	increase	108 ± 21*^@^ Unit	166 ± 27*^@^ Unit	84 ± 11*^@^ Unit	110 ± 45*^@^ Unit	enhance	0.36 ± 0.06 %	decrease					
Phe Asn Glu Gln (FNEQ; printed: Phe Asn Glu Gln) [CMS029]	0.21 ± 0.03 %	0.18 ± 0.05 %	increase	87 ± 4 %	increase	18 ± 7 Unit	147 ± 23*^@^ Unit	143 ± 13*^@^ Unit	115 ± 22*^@^ Unit			decrease	0.22 ± 0.04*^@^ %	1.7 ± 0.3	enhance		weight of spleen (spleen index), X ± SD (%) (spleen; Table 28, peptide 5 μg/kg/day (so in the source) i.p. 15 days (IFN-γ, IL-2 3×10^5 IU/kg/day)): 0.42 ± 0.04 %
Phe Gln Ser Phe (FQSF; printed: Phe Gln Ser Phe) [CMS033]	0.20 ± 0.02 %	0.18 ± 0.03 %	increase	89 ± 8 %	increase	78 ± 12*^@ Unit	128 ± 39*^@^ Unit	112 ± 15*^@^ Unit	143 ± 27*^@^ Unit	enhance			0.25 ± 0.04*^@^ %				
Phe Glu Gln Asn Met (FEQNM; printed: Phe Glu Gln Asn Met) [CMS027]		0.21 ± 0.03*^@^ %	increase	88 ± 8 %	increase	99 ± 14*^@^ Unit	117 ± 45*^@^ Unit	93 ± 11*^@^ Unit		enhance	0.37 ± 0.03 %	decrease	0.20 ± 0.03*^ %				X ± SD (phagocytotic index) (mononuclear phagocyte; healthy mice, peptide 0.5 μg/kg/day i.p. 15 days (IFN-γ, IL-2 3×10^5 IU/kg/day), saline 5.1 ± 0.6): 6.4 ± 0.6; effect on the phagocytotic activity of mononuclear phagocyte (summary) (mononuclear phagocyte; statistically significant difference from saline in any of the dosage groups 0.5-500 μg/kg/day): enhance
TTYNSIM [CMS026]	0.31 ± 0.05*^@^ %	0.27 ± 0.02*^@^ %	increase	89 ± 7 %	increase	19 ± 6 Unit	191 ± 17*^@^ Unit	98 ± 9*^@^ Unit					0.20 ± 0.03*^ %			0.21 ± 0.05 %	NK cell cytotoxic activity, X ± SD (%) (NK cell; peptide 50 μg/kg/day i.p. 15 days (IFN-γ, IL-2 3×10^5 IU/kg/day), saline 56 ± 8): 76 ± 9 %
VVYPWTQRF [CMS002]	0.24 ± 0.05*^ %	0.21 ± 0.02*^@^ %	increase		increase	4 ± 1 Unit			87 ± 18*^@ Unit					1.8 ± 0.3	enhance	0.26 ± 0.06*^@^ %	NK cell cytotoxic activity, X ± SD (%) (NK cell; peptide 0.5 μg/kg/day i.p. 15 days (IFN-γ, IL-2 3×10^5 IU/kg/day), saline 58 ± 7): 76 ± 9 %; X ± SD (stimulation index) (T lymphocyte; [2]): 2.6 ± 0.3*^@^
